Converted amounts (≈) assume the structure as drawn.
Legend:
[1] = background statement; cited from earlier work
[2] = Solubility test of BD in SBECD and Tween 80 solutions; assay type: physicochemical
Protocol: Solubility test to investigate the solubilizing effect of SBECD and Tween 80 as solubilizers on BD, and to investigate the solubility of BD at different concentrations.
Investigation of the solubility of BD under different concentrations of SBECD: Weigh 0.1 g, 0.3 g, 0.5 g, and 1.0 g of […] into a 10 ml EP tube, add 10 ml of pure water, and shake until the […] is completely dissolved, then add excess BD (about 500 mg/100 mL), and wrap the EP tube in tin foil to protect from light. After protecting from light, place the EP tube on a shaker, shake for 24 hours, and centrifuge to collect the supernatant.

Row | BD Solubility ([2]; SBECD concentration 1%) [mg/100 ml] | BD Solubility ([2]; SBECD concentration 3%) [mg/100 ml] | BD Solubility ([2]; SBECD concentration 5%) [mg/100 ml] | BD Solubility ([2]; SBECD concentration 10%) [mg/100 ml] | BD Solubility ([2]; Tween 80 concentration 5 mg/100 ml) [mg/100 ml] | BD Solubility ([2]; Tween 80 concentration 10 mg/100 ml) [mg/100 ml] | BD Solubility ([2]; Tween 80 concentration 20 mg/100 ml) [mg/100 ml] | BD Solubility ([2]; Tween 80 concentration 1%) [mg/100 ml] | BD Solubility ([2]; Tween 80 concentration 3%) [mg/100 ml] | BD Solubility ([2]; Tween 80 concentration 5%) [mg/100 ml] | BD Solubility ([2]; Tween 80 concentration 10%) [mg/100 ml] | solubility at 24 h ([2]; Tween 80 solution in water, aqueous with cosolvent or surfactant or cyclodextrin, thermodynamic from solid, Tween 80 concentration 20 mg/100 ml) [µg/mL] | SMILES | half-life [1] | maintains bronchiectatic activity for [1] [h]
1 |  |  |  |  |  |  |  |  |  |  |  |  | COc1ccc(CC(C)(C)NC[C@H](O)c2cc(O)cc3c2OCC(=O)N3)cc1 [Olodaterol, 6-hydroxy-8-[(1R)-1-hydroxy-2-{[1-(4-methoxyphenyl)-2-methylpropan-2-yl]amino}ethyl]-3,4-dihydro-2H-1,4-benzoxazin-3-one] | more than 12 h | 24
2 | 16.91 | 40.28 | 61.91 | 81.3 | 0.224 | 0.256 | 0.292 | 16.54 | 38.88 | 64.84 | 118.79 | 2.92 (≈ 6.78 µM) | CCCC1O[C@@H]2C[C@H]3[C@@H]4CCC5=CC(=O)C=C[C@]5(C)[C@H]4[C@@H](O)C[C@]3(C)[C@]2(C(=O)CO)O1 (stereo partly drawn) [BD, 11β,21-dihydroxy-16α,17α-(butylidenebis(oxy))pregna-1,4-diene-3,20-dione] |  | 

From patent US20210393521A1, “PREPARATION OF A PHARMACEUTICAL COMPOSITION OF OLODATEROL, TIOTROPIUM BROMIDE AND BUDESONIDE” (priority 2020, published 2021)
